In general, IC50 refers to the point on the concentration scale where inhibition reaches its midpoint.

Experimental findings from patent US9670227B2, “Thienopyrimidine derivatives, a process for their preparation and pharmaceutical compositions containing them” (LES LABORATOIRES SERVIER, priority 2013, dated 2017) are described below.

Like-named read-outs stand apart in the source and are kept apart here.

One assay has as its target Mcl-1 protein (UniProtKB primary accession number: Q07820) (Homo sapiens, UniProt Q07820). As to the kind of experiment: Inhibition of Mcl-1 by fluorescence polarisation, Method 1. It is filed as binding. The settings on record: read-out: IC50 (M) Mcl-1 FP. The method, boiled down:
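Fluorescence polarisation competition with an 11-point compound dilution series (final DMSO 5%). Mcl-1 protein at 5 nM and fluorescein-labelled ligand at 1 nM (final) in 10 mM HEPES, 150 mM NaCl, 0.05% Tween 20, pH 7.4.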
Background: Polarisation of emitted light reports the rotation of a fluorescent probe.

The subject of assay [1] is H929 multiple myeloma tumour line. Description: In vitro cytotoxicity, Microculture Tetrazolium Assay. It is filed as cell-based. The note with it: H929 cells, 48 hours exposure, MTT, read-out: IC50 (μM) MTT H929. How it is done:
The cytotoxicity studies were carried out on the H929 multiple myeloma tumour line.
The cells are distributed onto microplates and exposed to the test compounds for 48 hours.

The mark [2] stands for this setting: fluorescence polarisation, Method 1, or Method 2.
[3] abbreviates: fluorescence polarisation test, Method 2 values are underlined in the patent (underlining not visible here).

Mcl-1 protein, sequence (Q07820 whole entry): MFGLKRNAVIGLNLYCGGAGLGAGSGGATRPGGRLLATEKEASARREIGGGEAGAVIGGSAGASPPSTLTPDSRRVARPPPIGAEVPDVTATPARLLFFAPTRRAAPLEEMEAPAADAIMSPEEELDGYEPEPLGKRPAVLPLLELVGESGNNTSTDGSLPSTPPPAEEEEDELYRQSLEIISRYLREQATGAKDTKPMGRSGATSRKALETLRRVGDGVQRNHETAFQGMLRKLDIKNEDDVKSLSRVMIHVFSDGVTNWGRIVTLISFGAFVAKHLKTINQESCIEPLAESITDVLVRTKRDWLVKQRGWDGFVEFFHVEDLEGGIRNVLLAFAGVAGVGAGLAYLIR

For the compound `COc1ccccc1CC(Oc1ncnc2sc(-c3cccc([N+](=O)[O-])c3)c(-c3ccc(OCCN4CCN(C)CC4)c(Cl)c3C)c12)C(=O)O` [Example 545, (2R)-2-{[(5Sa)-5-{3-chloro-2-methyl-4-[2-(4-methylpiperazin-1-yl)ethoxy]phenyl}-6-(3-nitrophenyl)thieno[2,3-d]pyrimidin-4-yl]oxy}-3-(2-methoxyphenyl)propanoic acid], the IC50 on Mcl-1 protein (setting [2]) amounted to 3.9e-08 M; in assay [1] (Homo sapiens, NCI-H929, 48 h), 1.1 µM.

For the compound `Cc1c(-c2c(-c3ccc(OCC(F)(F)F)nc3)sc3ncnc(OC(Cc4ccccc4OCc4ccnn4CC(F)(F)F)C(=O)O)c23)ccc(OCCN2CCN(C)CC2)c1Cl` [Example 695, (2R)-2-[((5Sa)-5-{3-chloro-2-methyl-4-[2-(4-methylpiperazin-1-yl)ethoxy]phenyl}-6-[6-(2,2,2-trifluoroethoxy)pyridin-3-yl]thieno[2,3-d]pyrimidin-4-yl)oxy]-3-(2-{[1-(2,2,2-trifluoroethyl)-1H-pyrazol-5-yl]methoxy}phenyl)propanoic acid], the IC50 is 1.6e-08 M at Mcl-1 protein (setting [2]) and 0.268 µM in assay [1] (Homo sapiens, NCI-H929, 48 h).

As to `Cc1c(-c2c(-c3ccc(F)cc3)sc3ncnc(OC(Cc4ccccc4OCc4ccnc(OCC(F)(F)F)n4)C(=O)O)c23)ccc(OCCN(C)C)c1Cl` [Example 131, (2R)-2-{[(5Sa)-5-{3-chloro-4-[2-(dimethylamino)ethoxy]-2-methylphenyl}-6-(4-fluorophenyl)thieno[2,3-d]pyrimidin-4-yl]oxy}-3-(2-{[2-(2,2,2-trifluoroethoxy)pyrimidin-4-yl]methoxy}phenyl)propanoic acid], the IC50 on Mcl-1 protein (setting [3]) was 7.9e-09 M; in assay [1] (Homo sapiens, NCI-H929, 48 h), 0.039 µM.

With `CC#Cc1sc2ncnc(OC(Cc3ccccc3OCc3ccnc(OC)n3)C(=O)O)c2c1-c1ccc(OCCN2CCN(C)CC2)c(Cl)c1C` [Example 486, (2R)-2-{[(5Sa)-5-{3-chloro-2-methyl-4-[2-(4-methylpiperazin-1-yl)ethoxy]phenyl}-6-(prop-1-yn-1-yl)thieno[2,3-d]pyrimidin-4-yl]oxy}-3-{2-[(2-methoxypyrimidin-4-yl)methoxy]phenyl}propanoic acid], the IC50 on Mcl-1 protein (setting [2]) was determined as 1.9e-09 M; in assay [1] (Homo sapiens, NCI-H929, 48 h), 0.146 µM.

With `Cc1c(-c2c(-c3ccc(F)cc3)sc3ncnc(OC(Cc4ccccc4OCc4ccnc(C5CCCC5)n4)C(=O)O)c23)ccc(OCCN2CCN(C)CC2)c1Cl` [Example 28, (2R)-2-{[(5Sa)-5-{3-chloro-2-methyl-4-[2-(4-methylpiperazin-1-yl)ethoxy]phenyl}-6-(4-fluorophenyl)thieno[2,3-d]pyrimidin-4-yl]oxy}-3-{2-[(2-cyclopentylpyrimidin-4-yl)methoxy]phenyl}propanoic acid], the IC50 was 4.5e-09 M at Mcl-1 protein (setting [3]) and 0.021 µM in assay [1] (Homo sapiens, NCI-H929, 48 h).

Turning to `COc1ccccc1-c1nccc(COc2ccccc2CC(Oc2ncnc3sc(-c4ccc(OCCc5ccccc5)cc4)c(-c4ccc(OCCN5CCN(C)CC5)c(Cl)c4C)c23)C(=O)O)n1` (single isomer, unassigned) [Example 766], the IC50 at Mcl-1 protein (setting [2]) was determined as 3.66e-09 M; in assay [1] (Homo sapiens, NCI-H929, 48 h), 0.037 µM.

As to `COc1ccccc1CC(Oc1ncnc2sc(-c3cnco3)c(-c3ccc(OCCN4CCN(C)CC4)c(Cl)c3C)c12)C(=O)O` [Example 569, (2R)-2-{[(5Sa)-5-{3-chloro-2-methyl-4-[2-(4-methylpiperazin-1-yl)ethoxy]phenyl}-6-(1,3-oxazol-5-yl)thieno[2,3-d]pyrimidin-4-yl]oxy}-3-(2-methoxyphenyl)propanoic acid], the IC50 is 3.9e-08 M on Mcl-1 protein (setting [2]) and 1.73 µM in assay [1] (Homo sapiens, NCI-H929, 48 h).

Take `Cc1cnc(COc2ccccc2CC(Oc2ncnc3sc(-c4ccco4)c(-c4ccc(OCCN5CCN(C)CC5)c(Cl)c4C)c23)C(=O)O)cn1` [Example 268, (2R)-2-{[(5Sa)-5-{3-chloro-2-methyl-4-[2-(4-methylpiperazin-1-yl)ethoxy]phenyl}-6-(furan-2-yl)thieno[2,3-d]pyrimidin-4-yl]oxy}-3-{2-[(5-methylpyrazin-2-yl)methoxy]phenyl}propanoic acid]: the IC50 at Mcl-1 protein (setting [3]) stood at 8.2e-09 M; in assay [1] (Homo sapiens, NCI-H929, 48 h) it was 0.086 µM.

For the compound `CCCCn1nccc1COc1ccccc1CC(Oc1ncnc2sc(-c3cccnc3)c(-c3ccc(OCCN4CCN(C)CC4)c(Cl)c3C)c12)C(=O)O` [Example 609, (2R)-3-{2-[(1-butyl-1H-pyrazol-5-yl)methoxy]phenyl}-2-{[(5Sa)-5-{3-chloro-2-methyl-4-[2-(4-methylpiperazin-1-yl)ethoxy]phenyl}-6-(pyridin-3-yl)thieno[2,3-d]pyrimidin-4-yl]oxy}propanoic acid], the IC50 came to 3.5e-09 M on Mcl-1 protein (setting [2]) and 0.063 µM in assay [1] (Homo sapiens, NCI-H929, 48 h).

For `COc1ccccc1CC(Oc1ncnc2sc(-c3ccco3)c(-c3ccc(OCC4CCN(C)CC4)c(Cl)c3C)c12)C(=O)O` [Example 311, (2R)-2-{[(5Sa)-5-{3-chloro-2-methyl-4-[(1-methylpiperidin-4-yl)methoxy]phenyl}-6-(furan-2-yl)thieno[2,3-d]pyrimidin-4-yl]oxy}-3-(2-methoxyphenyl)propanoic acid], the IC50 at Mcl-1 protein (setting [3]) is 1.5e-08 M; in assay [1] (Homo sapiens, NCI-H929, 48 h), 1.59 µM.

As for `COc1cc(-c2sc3ncnc(OC(Cc4ccccc4OC)C(=O)O)c3c2-c2ccc(OCCN3CCN(C)CC3)c(Cl)c2C)ccc1F` [Example 378, (2R)-2-{[(5Sa)-5-{3-chloro-2-methyl-4-[2-(4-methylpiperazin-1-yl)ethoxy]phenyl}-6-(4-fluoro-3-methoxyphenyl)thieno[2,3-d]pyrimidin-4-yl]oxy}-3-(2-methoxyphenyl)propanoic acid], the concentration for half-maximal inhibition (IC50) on Mcl-1 protein (setting [3]) was determined as 3.2e-09 M; in assay [1] (Homo sapiens, NCI-H929, 48 h) it was 0.202 µM.

With `COc1ccccc1CC(Oc1ncnc2sc(-c3cc(F)cc(Cl)c3)c(-c3ccc(OCCN4CCN(C)CC4)c(Cl)c3C)c12)C(=O)O` [Example 526, (2R)-2-{[6-(3-chloro-5-fluorophenyl)-(5Sa)-5-{3-chloro-2-methyl-4-[2-(4-methylpiperazin-1-yl)ethoxy]phenyl}thieno[2,3-d]pyrimidin-4-yl]oxy}-3-(2-methoxyphenyl)propanoic acid], the IC50 stood at 4.1e-09 M at Mcl-1 protein (setting [2]) and 0.835 µM in assay [1] (Homo sapiens, NCI-H929, 48 h).

With `CCn1nccc1COc1ccccc1CC(Oc1ncnc2sc(-c3ccc(F)c(OC)c3)c(-c3ccc(OCCN4CCN(C)CC4)c(Cl)c3C)c12)C(=O)O` [Example 384, (2R)-2-{[(5Sa)-5-{3-chloro-2-methyl-4-[2-(4-methylpiperazin-1-yl)ethoxy]phenyl}-6-(4-fluoro-3-methoxyphenyl)thieno[2,3-d]pyrimidin-4-yl]oxy}-3-{2-[(1-ethyl-1H-pyrazol-5-yl)methoxy]phenyl}propanoic acid], the IC50 on Mcl-1 protein (setting [3]) amounted to 3.8e-09 M; in assay [1] (Homo sapiens, NCI-H929, 48 h) it was 0.053 µM.

`COc1ccccc1C[C@@H](Oc1ncnc2sc(-c3ccc(F)c(F)c3)c(-c3ccc(OCCN4CCN(C)CC4)c(Cl)c3C)c12)C(=O)O` [Example 533, (2R)-2-{[(5Sa)-5-{3-chloro-2-methyl-4-[2-(4-methylpiperazin-1-yl)ethoxy]phenyl}-6-(3,4-difluorophenyl)thieno[2,3-d]pyrimidin-4-yl]oxy}-3-(2-methoxyphenyl)propanoic acid]: the IC50 on Mcl-1 protein (setting [2]) is 2.8e-08 M; in assay [1], 0.201 µM.

On to `Cc1cccc(C[C@@H](Oc2ncnc3sc(-c4ccco4)c(-c4ccc(OCCN5CCN(C)CC5)c(Cl)c4C)c23)C(=O)O)c1` [Example 347, (2R)-2-{[(5Sa)-5-{3-chloro-2-methyl-4-[2-(4-methylpiperazin-1-yl)ethoxy]phenyl}-6-(furan-2-yl)thieno[2,3-d]pyrimidin-4-yl]oxy}-3-(3-methylphenyl)propanoic acid], for which the IC50 stood at 1.4e-08 M at Mcl-1 protein (setting [3]) and 0.25 µM in assay [1].

Consider `Cc1c(-c2c(-c3ccoc3)sc3ncnc(OC(Cc4ccccc4)C(=O)O)c23)ccc(OCCN2CCN(C)CC2)c1Cl` [Example 509, (2R)-2-{[(5Sa)-5-{3-chloro-2-methyl-4-[2-(4-methylpiperazin-1-yl)ethoxy]phenyl}-6-(furan-3-yl)thieno[2,3-d]pyrimidin-4-yl]oxy}-3-phenylpropanoic acid], for which the IC50 on Mcl-1 protein (setting [2]) turned out to be 6.2e-08 M; in assay [1] (Homo sapiens, NCI-H929, 48 h) it was 1.46 µM.

With `Cc1c(-c2c(-c3ccco3)sc3ncnc(OC(Cc4ccccc4OCc4ccnc(N(C)C)n4)C(=O)O)c23)ccc(OCCN2CCN(C)CC2)c1Cl` [Example 251, (2R)-2-{[(5Sa)-5-{3-chloro-2-methyl-4-[2-(4-methylpiperazin-1-yl)ethoxy]phenyl}-6-(furan-2-yl)thieno[2,3-d]pyrimidin-4-yl]oxy}-3-(2-{[2-(dimethylamino)pyrimidin-4-yl]methoxy}phenyl)propanoic acid], the IC50 at Mcl-1 protein (setting [3]) turned out to be 6.3e-09 M; in assay [1] (Homo sapiens, NCI-H929, 48 h) it was 0.035 µM.

In the case of `Cc1c(-c2c(-c3ccc(F)cc3)sc3ncnc(OC(Cc4ccccc4OCc4ccnc(Oc5ccccc5)n4)C(=O)O)c23)ccc(OCCN2CCN(C)CC2)c1Cl` [Example 56, (2R)-2-{[(5Sa)-5-{3-chloro-2-methyl-4-[2-(4-methylpiperazin-1-yl)ethoxy]phenyl}-6-(4-fluorophenyl)thieno[2,3-d]pyrimidin-4-yl]oxy}-3-{2-[(2-phenoxypyrimidin-4-yl)methoxy]phenyl}propanoic acid], the IC50 worked out at 4.4e-09 M at Mcl-1 protein (setting [3]) and 0.022 µM in assay [1] (Homo sapiens, NCI-H929, 48 h).

As to `Cc1c(-c2c(-c3ccc(F)o3)sc3ncnc(OC(Cc4ccccc4OCc4ccnc(C(F)(F)F)n4)C(=O)O)c23)ccc(OCCN(C)C)c1Cl` [Example 201, (2R)-2-{[(5Sa)-5-{3-chloro-4-[2-(dimethylamino)ethoxy]-2-methylphenyl}-6-(5-fluorofuran-2-yl)thieno[2,3-d]pyrimidin-4-yl]oxy}-3-(2-{[2-(trifluoromethyl)pyrimidin-4-yl]methoxy}phenyl)propanoic acid], the 50% inhibitory concentration (IC50) at Mcl-1 protein (setting [3]) came to 5.8e-09 M; in assay [1] (Homo sapiens, NCI-H929, 48 h) it was 0.027 µM.
